For series [1] the following is noted: as injection additive; cited from earlier work.
Series [2] can be described thus: Radiolysis stability of 18F-FDG solutions with mannitol: radiochemical purity by TLC (Examples 13-18, Comparative Example 2). The class given is physicochemical. Conditions: added at 2.5 mmol/L or higher concentrations. As to the method: The same procedure as in Comparative Example 1 and Examples 1 through 12 was repeated to obtain a ^18F-FDG stock solution (radioactivity=126.3 GBq). To the ^18F-FDG stock solution, physiological saline was added for dilution so that the resulting solution had 92.5 MBq/mL 4.5 hours after preparation. This gave a ^18F-FDG solution.
To 2 mL of the above-obtained ^18F-FDG solution, the mannitol solutions having different concentrations shown in Table 3 were each added in amounts shown in Table 3, and mixed at room temperature to prepare respective sample solutions.
The above-obtained samples were subjected to TLC analysis on the below conditions immediately after the preparation of ^18F-FDG solution (Comparative Example 2 only), and 4.5 and 8.5 hours after the preparation. Radiochemical purity was obtained based on the area percentage of the ^18F-FDG peak. The radiochemical purity at each time point was compared to one another to evaluate stability of the samples.
TLC plate=Silica Gel 60 F254 (under trade name, manufactured by Merck & Co., Inc.)
Developing solvent=acetonitrile/water=19:1
Detector=Radiochromanizer (JTC-R75-21361, manufactured by Aloka)

A further series relates to glucose transporters. Conditions: reported by Heli Teerijoki et al. and A. N. Ouraishi et al.; cited from earlier work.
For series [3] the following is noted: aqueous solution; reported by Sara Goldstein et al.; cited from earlier work.

Results on 6 compounds are retold here after patent publication US20080193379A1, “Radioactive Diagnostic Imaging Agent” (Nihon Medi-Physics Co., Ltd., priority 2005, published 2008).

Each structure is given as a SMILES string.

With `OC[C@@H](O)[C@@H](O)[C@H](O)[C@@H](O)CO` [sorbitol], the “Maximum dose for intravenous injection” value in series [1] is on record as 1.5 g.

On to `OC[C@H]1O[C@@H](O[C@H]2[C@H](O)[C@@H](O)C(O)O[C@@H]2CO)[C@H](O)[C@@H](O)[C@H]1O` (stereo partly drawn) [lactose], for which, in series [1], the “Maximum dose for intravenous injection” value was 1.25 g.

On to `OC[C@H]1O[C@H](O[C@H]2[C@H](O)[C@@H](O)[C@H](O)O[C@@H]2CO)[C@H](O)[C@@H](O)[C@@H]1O` [maltose], for which the “Maximum dose for intravenous injection” value in series [1] is listed as 10 g.

`OC[C@@H](O)[C@@H](O)[C@H](O)[C@H](O)CO` [mannitol]: the “Prevention of the decrease in radiochemical purity of 18F-FDG caused by radiolysis” value in series [2] is “can significantly prevent the decrease in the radiochemical purity”. In addition, the “Maximum dose for intravenous injection” value in series [1] is reported as 1.2 g. For the same compound, the “Substrate for glucose transporters” value in the series on glucose transporters is recorded as “does not serve as a substrate for glucose transporters”. For the same compound, in series [3], the “Scavenger of OH radicals” value was “acts as a scavenger of OH radials”.

In the case of `OC[C@@H](O)[C@H](O)[C@@H](O)CO` [xylitol], the “Maximum dose for intravenous injection” value in series [1] was 0.2 g.

Regarding `O=C(CO)[C@@H](O)[C@H](O)[C@H](O)CO` [fructose], the “Maximum dose for intravenous injection” value in series [1] is 0.9 g.
